# Laboratory results from the supplement of paper PMC10307832.
# Compound: O=c1ncccn1[C@@H]1O[C@H](CO)[C@@H](O)[C@H]1O [Zebularine] + Nc1ncn([C@H]2C[C@H](O)[C@@H](CO)O2)c(=O)n1 [Decitabine] (partner 2 µM)
# Assay: relative viability (nuclei count vs DMSO), 5 days (fraction); higher = more cells survive
# Conditions: first compound 31.62 µM
# Procedure, shortened: (§1)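 Cells from lung cancer lines were seeded into 1536-well plates and, one day later, dosed by pin tool. Treatments were either a single drug or a fixed dose of an anchor drug with five library-drug doses (not always all listed) in √10 steps. After 5 days, nuclei were stained in a one-step fixation (final 0.05% Triton X-100, 1% formaldehyde, 1 ug/ml Hoechst) and counted on 4× images, and relative viability is the treated-to-vehicle nuclei ratio, as the median of duplicate plates.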
row,Cell Line,relative viability
1,COR-L23,0.363
2,COR-L 105,0.648
3,LOU-NH91,0.849
4,ChaGo-K-1,0.232
5,NCI-H2170,0.505
6,NCI-H2405,0.765
7,A549,0.267
8,NCI-H522,0.61
9,SW 900,0.43
10,NCI-H2009,0.383
11,NCI-H661,0.608
12,SK-LU-1,0.675
13,NCI-H2023,0.199

# Same assay, conditions: first compound 100 µM
row,Cell Line,relative viability
1,NCI-H2342,0.696
2,NCI-H727,0.826
3,NCI-H1650,0.269
4,NCI-H1993,0.703
5,SW 1573,0.555
6,NCI-H838,0.289
7,LCLC-103H,0.666
8,NCI-H520,0.233
9,NCI-H2126,0.396
10,EMC-BAC-2,1.01
11,NCI-H2085,0.508
12,HCC-366,0.108
13,NCI-H1666,0.669
14,NCI-H596,0.98
15,LK-2,0.194
16,NCI-H2087,0.223

row,Cell Line,relative viability
1,NCI-H1648,0.438
2,SK-MES-1,0.261
3,H3255,0.665
4,COR-L23,0.202
5,COR-L 105,0.647
6,LOU-NH91,0.593
7,ChaGo-K-1,0.199
8,NCI-H2170,0.349
9,NCI-H2405,0.58
10,A549,0.185
11,NCI-H522,0.639
12,SW 900,0.432
13,NCI-H2009,0.266
14,NCI-H661,0.505
15,SK-LU-1,0.495
16,NCI-H2023,0.182

# Compound: O=c1ncccn1[C@@H]1O[C@H](CO)[C@@H](O)[C@H]1O [Zebularine] + NC(=O)Nc1cc(-c2cccc(F)c2)sc1C(=O)N[C@H]1CCCNC1 [AZD7762] (partner 0.2 µM)
# Assay: as above
# Conditions: first compound 1 µM
# Procedure, shortened: as §1
row,Cell Line,relative viability
1,NCI-H2342,0.512
2,NCI-H727,0.785
3,NCI-H1703,0.144
4,NCI-H1993,0.76
5,NCI-H838,0.934
6,LCLC-103H,0.8
7,NCI-H2126,0.988
8,EMC-BAC-2,1.19
9,NCI-H2085,1.11
10,HCC-366,0.336
11,NCI-H1666,0.91
12,NCI-H596,1.23
13,LK-2,0.492
14,NCI-H2087,1.55
15,NCI-H1648,0.587
16,H3255,1.08
17,LOU-NH91,0.522
18,ChaGo-K-1,0.916
19,NCI-H2170,0.914
20,NCI-H2405,0.798
21,NCI-H522,0.76
22,SW 900,0.65
23,CAL-12T,0.659

# Same assay, conditions: first compound 3.162 µM
row,Cell Line,relative viability
1,NCI-H2342,0.415
2,NCI-H727,0.703
3,NCI-H1703,0.173
4,NCI-H1993,0.881
5,NCI-H838,0.977
6,LCLC-103H,0.798
7,NCI-H2126,0.963
8,EMC-BAC-2,1.2
9,NCI-H2085,1.07
10,HCC-366,0.264
11,NCI-H1666,0.841
12,NCI-H596,1.09
13,LK-2,0.382
14,NCI-H2087,1.38
15,NCI-H1648,0.71
16,H3255,0.909
17,LOU-NH91,0.751
18,ChaGo-K-1,0.862
19,NCI-H2170,0.982
20,NCI-H2405,0.792
21,NCI-H522,0.821
22,SW 900,0.57
23,CAL-12T,0.674

# Same assay, conditions: first compound 10 µM
row,Cell Line,relative viability
1,NCI-H2342,0.399
2,NCI-H727,0.606
3,NCI-H1703,0.118
4,NCI-H1993,0.625
5,NCI-H838,0.764
6,LCLC-103H,0.579
7,NCI-H2126,0.673
8,EMC-BAC-2,0.792
9,NCI-H2085,0.788
10,HCC-366,0.219
11,NCI-H1666,0.726
12,NCI-H596,0.843
13,LK-2,0.49
14,NCI-H2087,0.735
15,NCI-H1648,0.543
16,H3255,0.744
17,LOU-NH91,0.568
18,ChaGo-K-1,0.427
19,NCI-H2170,0.771
20,NCI-H2405,0.545
21,NCI-H522,0.767
22,CAL-12T,0.501

# Same assay, conditions: first compound 31.62 µM
row,Cell Line,relative viability
1,NCI-H2342,0.505
2,NCI-H727,0.646
3,NCI-H1703,0.142
4,NCI-H1993,0.671
5,NCI-H838,0.861
6,LCLC-103H,0.802
7,NCI-H2126,0.968
8,EMC-BAC-2,1.2
9,NCI-H2085,1.13
10,HCC-366,0.463
11,NCI-H1666,0.916
12,NCI-H596,1.01
13,LK-2,0.23
14,NCI-H2087,0.794
15,NCI-H1648,0.615
16,H3255,0.995
17,LOU-NH91,0.743
18,ChaGo-K-1,0.337
19,NCI-H2170,0.938
20,NCI-H2405,0.875
21,NCI-H522,0.858
22,SW 900,0.818
23,CAL-12T,0.689

# Same assay, conditions: first compound 100 µM
row,Cell Line,relative viability
1,NCI-H2342,0.429
2,NCI-H727,0.574
3,NCI-H1703,0.103
4,NCI-H1993,0.493
5,NCI-H838,0.738
6,LCLC-103H,0.689
7,NCI-H2126,0.691
8,EMC-BAC-2,1.15
9,NCI-H2085,0.66
10,HCC-366,0.162
11,NCI-H1666,0.654
12,NCI-H596,1.07
13,LK-2,0.16
14,NCI-H2087,0.465
15,NCI-H1648,0.6
16,H3255,0.904
17,LOU-NH91,0.627
18,ChaGo-K-1,0.249
19,NCI-H2170,0.393
20,NCI-H2405,0.688
21,NCI-H522,0.841
22,SW 900,0.832
23,CAL-12T,0.602
